Article PMC10383849, “Novel Molecular Consortia of Cannabidiol with Nonsteroidal Anti-Inflammatory Drugs Inhibit Emerging Coronaviruses’ Entry” (Pathogens, 2023)
Entries after “also recorded” stand apart in the source; their conditions may differ. Read-outs that look alike come from different tables or passages of the source.

Experiments:
[1] = system: VSV-pseudotypes bearing SARS-CoV-1 S protein; assay: microbe, parasite or virus in culture; format: cell-based; details: for inhibitory effect on SARS-CoV-1 virus entry (in words): 1-100 μg/mL
[2] = system: VSV-pseudotypes bearing SARS-CoV-2 S protein; assay: microbe, parasite or virus in culture; format: cell-based; details: for inhibitory effect on SARS-CoV-2 entry (in words): 1-100 μg/mL; for IC50: Severe acute respiratory syndrome coronavirus 2, HEK-293T, read-out: IC50, SARS-CoV-2 entry
[3] = system: SARS-CoV-2; details: lung epithelial cells; ref 41 (Nguyen et al.); cited from earlier work
[4] = system: SARS-CoV-2; details: ref 43 (van Breemen et al.); cited from earlier work
[5] = system: influenza virus; details: cited from earlier work
[6] = system: influenza virus A/Puerto Rico/8/34; format: cell-based
[7] = system: influenza virus A/Puerto Rico/8/34; format: cell-based; remark: listed apart in the source

## C=C(C)C1CCC(C)=CC1c1c(OC(=O)C(C)c2ccc(CC(C)C)cc2)cc(CCCCC)cc1OC(=O)C(C)c1ccc(CC(C)C)cc1 (centres unmarked) [CBD-I]
[1]
  inhibitory effect on SARS-CoV-1 virus entry (in words): did not find any significant inhibitory effect
[2]
  inhibitory effect on SARS-CoV-2 entry (in words): significantly inhibited; also recorded: significantly reduced
  IC50: < 1 µg/mL

## C=C(C)[C@@H]1CCC(C)=C[C@H]1c1c(O)cc(CCCCC)cc1O [CBD, cannabidiol]
[3]
  inhibition of SARS-CoV-2 replication (in words): inhibit SARS-CoV-2 replication

## C=C(C)[C@@H]1CCC(C)=C[C@H]1c1c(O)cc(CCCCC)c(C(=O)O)c1O [CBDA, cannabidiolic acid]
[4]
  block of SARS-CoV-2 entry into cells (in words): significantly block SARS-CoV-2 entry

## COc1ccc2cc([C@H](C)C(=O)O)ccc2c1 [naproxen]
[5]
  anti-influenza virus activity (in words): broad anti-influenza virus activity

## CCCCCc1cc(O)c(C/C=C(\C)CCC=C(C)C)c(O)c1C(=O)O [CBGA, cannabigerolic acid]
[4]
  block of SARS-CoV-2 entry into cells (in words): significantly block SARS-CoV-2 entry

## C=C(C)C1CCC(C)=CC1c1c(OC(=O)C(C)c2cccc(C(=O)c3ccccc3)c2)cc(CCCCC)cc1OC(=O)C(C)c1cccc(C(=O)c2ccccc2)c1 (centres unmarked) [CBD-K]
[1]
  inhibitory effect on SARS-CoV-1 virus entry (in words): did not find any significant inhibitory effect
[2]
  inhibitory effect on SARS-CoV-2 entry (in words): non-significant decrease in luciferase activity; also recorded: did not significantly affect

## C=C(C)[C@@H]1CCC(CO)=C[C@H]1c1c(O)cc(CCCCC)cc1O [7-OH-CBD]
[3]
  inhibition of SARS-CoV-2 replication (in words): inhibit SARS-CoV-2 replication

## C=C(C)C1CCC(C)=CC1c1c(OC(=O)C(C)c2ccc3cc(OC)ccc3c2)cc(CCCCC)cc1OC(=O)C(C)c1ccc2cc(OC)ccc2c1 (centres unmarked) [CBD-N]
[1]; 1 μg/mL
  fold reduction in luciferase activity, SARS-CoV-1: approximately 2 fold
[1]; 50 μg/mL
  fold decrease in luciferase activity, SARS-CoV-1: greater than 10 fold
[1]; 100 μg/mL
  fold decrease in luciferase activity, SARS-CoV-1: greater than 10 fold
[1]
  inhibitory effect on SARS-CoV-1 virus entry (in words): significant reduction; also recorded: significant inhibitory activity
[1]; Severe acute respiratory syndrome coronavirus, HEK-293T, read-out: IC50, SARS-CoV-1 virus entry
  IC50: < 1 µg/mL
[2]
  fold inhibition of SARS-CoV-2 entry: greater than 10 fold
  inhibitory effect on SARS-CoV-2 entry (in words): significantly inhibited; also recorded: significantly reduced
  IC50: < 1 µg/mL
[6]
  viral copy numbers in the supernatants vs mock: did not find any effect
[7]
  viral copy numbers in the supernatants vs mock: did not find any effect
